Reference: the supplement of paper PMC11061612

Legend:
Paclitaxel = compound: CC(=O)O[C@H]1C(=O)[C@@]2(C)[C@H]([C@H](OC(=O)c3ccccc3)[C@]3(O)C[C@H](OC(=O)[C@H](O)[C@@H](NC(=O)c4ccccc4)c4ccccc4)C(C)=C1C3(C)C)[C@]1(OC(C)=O)CO[C@@H]1C[C@@H]2O [Paclitaxel]; settings: max 3 µM
How it was run: (§1)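 Viability was measured with CellTiter-Glo 2.0 luminescence after 72 hours of dosing at a final DMSO of typically 0.2%, and scaled between blank-well and DMSO-well means. Beforehand, cancer cell lines sat 24 hours at 37°C and 5% CO2 in 1536-well plates in 7.5 μl DMEM/F12 or RPMI with 10% FBS. A non-linear mixed effects model fitted two-parameter logistic curves to the dose responses. The single-agent IC50 comes from these fits.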

SRA737 = compound: N#Cc1cnc(Nc2cc(NC[C@H]3CNCCO3)c(C(F)(F)F)cn2)cn1 [SRA737]; settings: max 10 µM
How it was run: as §1

Gemcitabine = compound: Nc1ccn([C@@H]2O[C@H](CO)[C@@H](O)C2(F)F)c(=O)n1 [Gemcitabine]; settings: max 0.3 µM
How it was run: as §1

Lapatinib = compound: CS(=O)(=O)CCNCc1ccc(-c2ccc3ncnc(Nc4ccc(OCc5cccc(F)c5)c(Cl)c4)c3c2)o1 [Lapatinib]; settings: max 10 µM
How it was run: as §1

SN-38 = compound: CCc1c2c(nc3ccc(O)cc13)-c1cc3c(c(=O)n1C2)COC(=O)[C@]3(O)CC [SN-38]; settings: max 0.3 µM
How it was run: as §1

Etoposide = compound: COc1cc([C@@H]2c3cc4c(cc3[C@@H](O[C@@H]3O[C@@H]5CO[C@@H](C)O[C@H]5[C@H](O)[C@H]3O)[C@H]3COC(=O)[C@H]23)OCO4)cc(OC)c1O [Etoposide]; settings: max 10 µM
How it was run: as §1

AZD8186 = compound: C[C@@H](Nc1cc(F)cc(F)c1)c1cc(C(=O)N(C)C)cc2c(=O)cc(N3CCOCC3)oc12 [AZD8186]; settings: max 10 µM
How it was run: as §1

Doxorubicin = compound: COc1cccc2c1C(=O)c1c(O)c3c(c(O)c1C2=O)C[C@@](O)(C(=O)CO)C[C@@H]3O[C@H]1C[C@H](N)[C@H](O)[C@H](C)O1 [Doxorubicin]; settings: max 1 µM
How it was run: as §1

Alisertib = compound: COc1cc(Nc2ncc3c(n2)-c2ccc(Cl)cc2C(c2c(F)cccc2OC)=NC3)ccc1C(=O)O [Alisertib]; settings: max 10 µM
How it was run: as §1

Venetoclax = compound: CC1(C)CCC(CN2CCN(c3ccc(C(=O)NS(=O)(=O)c4ccc(NCC5CCOCC5)c([N+](=O)[O-])c4)c(Oc4cnc5[nH]ccc5c4)c3)CC2)=C(c2ccc(Cl)cc2)C1 [Venetoclax]; settings: max 1 µM
How it was run: as §1

Selumetinib = compound: Cn1cnc2c(F)c(Nc3ccc(Br)cc3Cl)c(C(=O)NOCCO)cc21 [Selumetinib]; settings: max 10 µM
How it was run: as §1

AZD5363 = compound: C1CN(CCC1(C(=O)N[C@@H](CCO)C2=CC=C(C=C2)Cl)N)C3=NC=NC4=C3C=CN4 [AZD5363]; settings: max 10 µM
How it was run: as §1

SG3199 = compound: CC1=CN2[C@@H](C1)C=NC3=CC(=C(C=C3C2=O)OC)OCCCCCOC4=C(C=C5C(=C4)N=C[C@@H]6CC(=CN6C5=O)C)OC [SG3199]; settings: max 0.001 µM
How it was run: as §1

Olaparib = compound: O=C(c1cc(Cc2n[nH]c(=O)c3ccccc23)ccc1F)N1CCN(C(=O)C2CC2)CC1 [Olaparib]; settings: max 10 µM
How it was run: as §1

Crizotinib = compound: C[C@@H](Oc1cc(-c2cnn(C3CCNCC3)c2)cnc1N)c1c(Cl)ccc(F)c1Cl [Crizotinib]; settings: max 10 µM
How it was run: as §1

5-Fluorouracil = compound: O=c1[nH]cc(F)c(=O)[nH]1 [5-Fluorouracil]; settings: max 20 µM
How it was run: as §1

Taselisib = compound: Cc1nc(-c2cn3c(n2)-c2ccc(-c4cnn(C(C)(C)C(N)=O)c4)cc2OCC3)n(C(C)C)n1 [Taselisib]; settings: max 10 µM
How it was run: as §1

AZD5991 = compound: Cc1c2c(nn1C)CSCc1cc(n(C)n1)CSc1cc(c3ccccc3c1)OCCCc1c(C(=O)O)n(C)c3c-2c(Cl)ccc13 [AZD5991]; settings: max 1 µM
How it was run: as §1

AZD1390 = compound: CC(C)n1c(=O)n(C)c2cnc3cc(F)c(-c4ccc(OCCCN5CCCCC5)nc4)cc3c21 [AZD1390]; settings: max 0.3 µM
How it was run: as §1

AZD4320 = compound: CN(CC[C@H](CSC1=CC=CC=C1)NC2=C(C=C(C=C2)S(=O)(=O)NC(=O)C3=CC=C(C=C3)N4CCC(CC4)[C@H](C5=CC=CC=C5C6=CC=C(C=C6)Cl)O)S(=O)(=O)C(F)(F)F)CCO [AZD4320]; settings: max 1 µM
How it was run: as §1

AZD6738 = compound: C[C@@H]1COCCN1C2=NC(=NC(=C2)C3(CC3)[S@](=N)(=O)C)C4=C5C=CNC5=NC=C4 [AZD6738]; settings: max 10 µM
How it was run: as §1

MK-2206 = compound: NC1(c2ccc(-c3nc4ccn5c(=O)[nH]nc5c4cc3-c3ccccc3)cc2)CCC1 [MK-2206]; settings: max 10 µM
How it was run: as §1

Prexasertib = compound: COc1cccc(OCCCN)c1-c1cc(Nc2cnc(C#N)cn2)n[nH]1 [Prexasertib]; settings: max 1 µM
How it was run: as §1

AZD2811 = compound: CCN(CCO)CCCOc1ccc2c(Nc3cc(CC(=O)Nc4cccc(F)c4)[nH]n3)ncnc2c1 [AZD2811]; settings: max 1 µM
How it was run: as §1

Dasatinib = compound: CC1=C(C(=CC=C1)Cl)NC(=O)C2=CN=C(S2)NC3=CC(=NC(=N3)C)N4CCN(CC4)CCO [Dasatinib]; settings: max 2 µM
How it was run: as §1

AZD7648 = compound: Cc1cc2ncnn2cc1Nc1ncc2c(n1)n(C1CCOCC1)c(=O)n2C [AZD7648]; settings: max 10 µM
How it was run: as §1

Palbociclib = compound: CC(=O)c1c(C)c2cnc(Nc3ccc(N4CCNCC4)cn3)nc2n(C2CCCC2)c1=O [Palbociclib]; settings: max 10 µM
How it was run: as §1

Carboplatin = compound: C1CC(C1)(C(=O)[O-])C(=O)[O-].N.N.[Pt+2] [Carboplatin]; settings: max 10 µM
How it was run: as §1

Trametinib = compound: CC(=O)Nc1cccc(-n2c(=O)n(C3CC3)c(=O)c3c(Nc4ccc(I)cc4F)n(C)c(=O)c(C)c32)c1 [Trametinib]; settings: max 1 µM
How it was run: as §1

AZD5153 = compound: COc1nnc2ccc(N3CCC(c4ccc(OCCN5CCN(C)C(=O)[C@H]5C)cc4)CC3)nn12 [AZD5153]; settings: max 1 µM
How it was run: as §1

Gefitinib = compound: COc1cc2ncnc(Nc3ccc(F)c(Cl)c3)c2cc1OCCCN1CCOCC1 [Gefitinib]; settings: max 10 µM
How it was run: as §1

AZD1775 = compound: C=CCn1c(=O)c2cnc(Nc3ccc(N4CCN(C)CC4)cc3)nc2n1-c1cccc(C(C)(C)O)n1 [AZD1775]; settings: max 3 µM
How it was run: as §1

[1] = compound: O=C(Nc1ccc2[nH]nc(-c3ccncc3)c2c1)[C@@H]1CCN(CC(=O)N2CCN(c3ccc(-c4ncccn4)cc3)CC2)C1; settings: max 5 µM
How it was run: as §1

Savolitinib = compound: C[C@@H](c1ccc2nccn2c1)n1nnc2ncc(-c3cnn(C)c3)nc21 [Savolitinib]; settings: max 1 µM
How it was run: as §1

AZD0156 = compound: CN(C)CCCOc1ccc(-c2ccc3ncc4c(c3c2)n(C2CCOCC2)c(=O)n4C)cn1 [AZD0156]; settings: max 3 µM
How it was run: as §1

Row | Cell Line | IC50, cell viability 72 h (Paclitaxel) [µM] | IC50, cell viability 72 h (SRA737) [µM] | IC50, cell viability 72 h (Gemcitabine) [µM] | IC50, cell viability 72 h (Lapatinib) [µM] | IC50, cell viability 72 h (SN-38) [µM] | IC50, cell viability 72 h (Etoposide) [µM] | IC50, cell viability 72 h (AZD8186) [µM] | IC50, cell viability 72 h (Doxorubicin) [µM] | IC50, cell viability 72 h (Alisertib) [µM] | IC50, cell viability 72 h (Venetoclax) [µM] | IC50, cell viability 72 h (Selumetinib) [µM] | IC50, cell viability 72 h (AZD5363) [µM] | IC50, cell viability 72 h (SG3199) [µM] | IC50, cell viability 72 h (Olaparib) [µM] | IC50, cell viability 72 h (Crizotinib) [µM] | IC50, cell viability 72 h (5-Fluorouracil) [µM] | IC50, cell viability 72 h (Taselisib) [µM] | IC50, cell viability 72 h (AZD5991) [µM] | IC50, cell viability 72 h (AZD1390) [µM] | IC50, cell viability 72 h (AZD4320) [µM] | IC50, cell viability 72 h (AZD6738) [µM] | IC50, cell viability 72 h (MK-2206) [µM] | IC50, cell viability 72 h (Prexasertib) [µM] | IC50, cell viability 72 h (AZD2811) [µM] | IC50, cell viability 72 h (Dasatinib) [µM] | IC50, cell viability 72 h (AZD7648) [µM] | IC50, cell viability 72 h (Palbociclib) [µM] | IC50, cell viability 72 h (Carboplatin) [µM] | IC50, cell viability 72 h (Trametinib) [µM] | IC50, cell viability 72 h (AZD5153) [µM] | IC50, cell viability 72 h (Gefitinib) [µM] | IC50, cell viability 72 h (AZD1775) [µM] | IC50, cell viability 72 h [1] [µM] | IC50, cell viability 72 h (Savolitinib) [µM] | IC50, cell viability 72 h (AZD0156) [µM]
1 | EW-24 (Ewing's Sarcoma) | 0.255 | 8.42 | 0.031 | > 10 | 0.0129 | 5.33 | > 10 | > 1 | > 10 | > 1 | > 10 | > 10 | > 0.001 | > 10 | > 10 | > 20 | 2.45 | > 1 | > 0.3 | 0.204 | > 10 | > 10 | 0.12 | > 1 | > 2 | > 10 | > 10 | > 10 | > 1 | > 1 | > 10 | > 3 | > 5 | > 1 | > 3
2 | EoL-1-cell (Acute Myeloid Leukemia) | 0.00412 |  | 0.0067 | > 10 | 0.00599 | 0.157 | > 10 | 0.0691 | 0.0428 | 0.0618 | 1.55 | 3.19 | > 0.001 | > 10 | 2.29 | 3.96 | 6.19 | 0.0606 | > 0.3 | 0.00851 | 0.765 | 4.05 | 0.00487 | 0.00992 | 0.00561 | > 10 | 4.64 | > 10 | 0.0155 | 0.0413 | > 10 | 0.158 | 0.506 | > 1 | > 3
3 | Hs-766T (Pancreatic Carcinoma) | > 3 | > 10 | > 0.3 | > 10 | > 0.3 | > 10 | > 10 | > 1 | > 10 | > 1 | 5.43 | > 10 | > 0.001 | > 10 | > 10 | > 20 | > 10 | > 1 | > 0.3 | > 1 | > 10 | > 10 | 0.163 | > 1 | > 2 | > 10 | > 10 | > 10 | 0.113 | > 1 | > 10 | > 3 | > 5 | > 1 | > 3
